Measured values published in ChEMBL document CHEMBL1153748 (J Med Chem, 2010).

Columns and labels:
[1] = target: T1, Peroxisome proliferator-activated receptor alpha (Homo sapiens, UniProt Q07869); assay: Agonist activity at human PPARalpha ligand binding domain expressed in human 293T cells co-transfected with Gal4-DBD by luciferase transactivation assay; assay type: cell-based; conditions: read-out: EC50
T1 sequence (Q07869 whole entry): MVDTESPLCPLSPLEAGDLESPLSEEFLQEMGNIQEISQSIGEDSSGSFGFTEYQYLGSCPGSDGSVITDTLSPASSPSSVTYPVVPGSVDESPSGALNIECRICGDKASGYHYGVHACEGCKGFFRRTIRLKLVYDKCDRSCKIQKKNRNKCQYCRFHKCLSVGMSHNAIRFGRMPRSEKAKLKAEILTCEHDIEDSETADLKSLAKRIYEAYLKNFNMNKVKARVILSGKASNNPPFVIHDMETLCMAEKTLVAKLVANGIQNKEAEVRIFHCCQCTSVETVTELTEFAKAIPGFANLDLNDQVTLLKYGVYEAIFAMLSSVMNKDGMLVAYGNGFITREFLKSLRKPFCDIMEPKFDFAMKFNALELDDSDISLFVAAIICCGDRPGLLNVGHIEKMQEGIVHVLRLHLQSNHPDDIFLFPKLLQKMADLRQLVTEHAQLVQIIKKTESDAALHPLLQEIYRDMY

[2] = target: T2, Peroxisome proliferator-activated receptor gamma (Homo sapiens, UniProt P37231); assay type: cell-based, 293T; conditions: read-out: EC50
T2 sequence (P37231 whole entry): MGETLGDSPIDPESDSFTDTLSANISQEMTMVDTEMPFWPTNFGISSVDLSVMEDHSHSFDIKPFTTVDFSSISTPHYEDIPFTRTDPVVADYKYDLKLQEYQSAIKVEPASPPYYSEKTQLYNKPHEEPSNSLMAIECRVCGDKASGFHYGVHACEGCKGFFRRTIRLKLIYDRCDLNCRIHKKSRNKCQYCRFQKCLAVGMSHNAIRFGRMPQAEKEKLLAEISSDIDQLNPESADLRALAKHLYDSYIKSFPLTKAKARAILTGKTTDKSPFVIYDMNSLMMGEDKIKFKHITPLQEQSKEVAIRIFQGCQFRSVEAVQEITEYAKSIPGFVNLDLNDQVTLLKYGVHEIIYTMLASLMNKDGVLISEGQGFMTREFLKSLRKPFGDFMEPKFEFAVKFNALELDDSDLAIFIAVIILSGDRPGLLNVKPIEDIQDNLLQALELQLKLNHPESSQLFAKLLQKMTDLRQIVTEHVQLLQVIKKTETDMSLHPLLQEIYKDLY

[3] = target: T3, Peroxisome proliferator-activated receptor delta (Homo sapiens, UniProt Q03181)
T3 sequence (Q03181 whole entry): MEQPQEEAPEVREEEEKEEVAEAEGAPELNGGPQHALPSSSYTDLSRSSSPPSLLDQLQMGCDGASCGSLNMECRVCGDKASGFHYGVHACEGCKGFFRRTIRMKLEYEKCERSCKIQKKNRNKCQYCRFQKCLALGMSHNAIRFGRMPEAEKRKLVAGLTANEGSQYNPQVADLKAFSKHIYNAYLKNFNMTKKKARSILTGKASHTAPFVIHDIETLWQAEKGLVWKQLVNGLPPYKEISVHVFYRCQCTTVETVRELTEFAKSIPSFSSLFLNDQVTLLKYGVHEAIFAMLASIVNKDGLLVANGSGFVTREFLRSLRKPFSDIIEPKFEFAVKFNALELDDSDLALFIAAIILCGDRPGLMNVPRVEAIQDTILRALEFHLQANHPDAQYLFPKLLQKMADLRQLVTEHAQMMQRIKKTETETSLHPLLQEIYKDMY

SMILES	EC50 [1] [µM]	EC50 [2] [µM]	EC50 [3] [µM]
Cc1cc(OC/C=C(\C#Cc2ccc(C(F)(F)F)cc2)c2ccc(Br)cc2)ccc1OCC(=O)O	> 10	> 10	0.13
Cc1cc(OCc2nc(-c3ccccc3)c(-c3ccc(Cl)cc3)s2)ccc1OCC(=O)O	> 10	> 10	0.13
COc1ccc(-c2nc(COc3ccc4c(ccn4CC(=O)O)c3)sc2-c2ccc(C(F)(F)F)cc2)cc1	> 10	> 10	0.34
COc1cccc(-c2nc(COc3ccc(OCC(=O)O)c(C)c3)sc2-c2ccc(OC(F)(F)F)cc2)c1	> 10	> 10	0.12
COc1ccc(-c2nc(COc3ccc(OCC(=O)O)c4ccccc34)sc2-c2ccc(C(F)(F)F)cc2)cc1	> 10	> 10	2.93
Cc1cc(OCc2nc(-c3ccc(Cl)cc3)c(-c3ccc(Cl)cc3)s2)ccc1OCC(=O)O	> 10	> 10	0.51
COc1ccc(-c2nc(COc3ccc(OCC(=O)O)c(C)c3)sc2-c2ccc(OC)c(Cl)c2)cc1	> 10	> 10	0.13
Cc1cc(OCc2nc(-c3ccc(C(=O)N(C)C)cc3)c(-c3ccc(OC(F)(F)F)cc3)s2)ccc1OCC(=O)O	> 10	> 10	0.023
Cc1cc(OCc2nc(-c3cccnc3)c(-c3ccc(OC(F)(F)F)cc3)o2)ccc1OCC(=O)O	> 10	> 10	0.007
Cc1cc(OCc2nc(-c3ccc(N4CCOCC4)cc3)c(-c3ccc(OC(F)(F)F)cc3)s2)ccc1OCC(=O)O	> 10	> 10	0.045
Cc1cc(OCc2nc(-c3ccc(N4CCCC4)cc3)c(-c3ccc(OC(F)(F)F)cc3)s2)ccc1OCC(=O)O	> 10	> 10	0.41
COc1ccc(-c2sc(COc3ccc(OCC(=O)O)c(C)c3)nc2-c2ccccc2)cc1	> 10	> 10	2.62
COc1ccc(-c2nc(COc3ccc(OCC(=O)O)c(C)c3)sc2-c2cc3ccccc3o2)cc1	> 10	> 10	0.05
CCCCOc1ccc(-c2nc(COc3ccc(OCC(=O)O)c(C)c3)sc2-c2ccc(OC(F)(F)F)cc2)cc1	> 10	> 10	0.026
CCCc1cc(OCc2nc(-c3ccc(OC)cc3)c(-c3ccc(C(F)(F)F)cc3)s2)ccc1OCC(=O)O	> 10	> 10	0.02
COc1ccc(-c2nc(COc3ccc(OCC(=O)O)c(C)c3)sc2-c2ccc(OC)cc2)cc1	> 10	> 10	0.1
COc1ccc(-c2nc(COc3ccc(OCC(=O)O)c(C)c3)sc2-c2ccc(-c3ccccc3)c(C(F)(F)F)c2)cc1	> 10	> 10	0.25
Cc1cc(OCc2nc(-c3ccc4[nH]c(=O)oc4c3)c(-c3ccc(OC(F)(F)F)cc3)s2)ccc1OCC(=O)O	> 10	> 10	0.544
COc1ccc(-c2nc(COc3ccc(OCC(=O)O)c(C)c3)oc2-c2ccc(C(F)(F)F)cc2)cc1	> 10	> 10	0.01
Cc1cc(OCc2nc(-c3ccc(N4CCOCC4)nc3)c(-c3ccc(OC(F)(F)F)cc3)s2)ccc1OCC(=O)O	> 10	> 10	0.018
COc1ccc(-c2nc(COc3ccc(CC(=O)O)c(C)c3)sc2-c2ccc(C(F)(F)F)cc2)cc1	> 10	> 10	0.14
Cc1cc(OCc2nc(-c3ccc4c(c3)OCO4)c(-c3ccc(OC(F)(F)F)cc3)s2)ccc1OCC(=O)O	> 10	> 10	0.031
COc1ccc(-c2nc(COc3ccc(OCC(=O)O)c(C)c3)sc2-c2ccc(OC(F)(F)F)cc2)cc1	> 10	> 10	0.02
COc1ccc(-c2nc(COc3ccc(OCC(=O)O)c(C)c3)sc2-c2ccccc2C(F)(F)F)cc1	> 10	> 10	> 10
COc1ccc(-c2nc(CSc3ccc(OCC(=O)O)c(C)c3)oc2-c2ccc(OC)cc2)cc1	> 10	> 10	0.66

SMILES	EC50 [1] [µM]	EC50 [2] [µM]	EC50 [3] [µM]
COc1ccc(-c2nc(COc3ccc(OCC(=O)O)cc3)sc2-c2ccc(C(F)(F)F)cc2)cc1	> 10	> 10	0.93
Cc1cc(OCc2nc(C)c(-c3ccc(Cl)cc3)s2)ccc1OCC(=O)O	> 10	> 10	0.32
Cc1ccc(-c2sc(COc3ccc(OCC(=O)O)c(C)c3)nc2C)cc1	> 10	> 10	6.32
Cc1cc(OCc2nc(-c3ccc(-c4ccccc4)cc3)c(-c3ccc(OC(F)(F)F)cc3)s2)ccc1OCC(=O)O	> 10	> 10	0.16
COc1ccc(-c2nc(COc3ccc(CC(=O)O)cc3Cl)sc2-c2ccc(OC)cc2)cc1		> 10	
COc1ccc(-c2nc(COc3ccc(OCC(=O)O)c(C)c3)sc2-c2ccc(C(F)(F)F)cc2)cc1	> 10	> 10	0.04
COc1ccc(-c2nc(COc3ccc4c(c3)CC(C(=O)O)O4)sc2-c2ccc(C(F)(F)F)cc2)cc1 (configuration not stated)	> 10	> 10	0.46
COc1ccc(-c2nc(COc3ccc(OCC(=O)O)c(C)c3)oc2-c2ccc(Cl)cc2)cc1	> 10	> 10	0.05
COc1ccc(-c2nc(COc3ccc(OCC(=O)O)c(C)c3)oc2-c2cccc(C(F)(F)F)c2)cc1	> 10	> 10	0.65
O=C(O)Cc1cccc(-c2noc(-c3ccccc3)c2C(=O)NCCOc2cc(Cl)cc(Cl)c2)c1	> 10	> 10	0.07
COc1ccc(-c2nc(COc3ccc(OCC(=O)O)c(C)c3)oc2-c2ccc(-c3ccccc3)cc2)cc1	> 10	> 10	0.01
COc1ccc(-c2nc(COc3ccc(OCC(=O)O)c(C)c3)sc2-c2ccc(SC(F)(F)F)cc2)cc1	> 10	> 10	0.15
COc1ccc(-c2nc(SCc3ccc(OCC(=O)O)c(C)c3)sc2-c2ccc(OC)cc2)cc1	> 10	> 10	5.67
CCCc1ccc(-c2sc(COc3ccc(OCC(=O)O)c(C)c3)nc2-c2ccc(OC)cc2)cc1	> 10	> 10	0.51
COc1ncc(-c2nc(COc3ccc(OCC(=O)O)c(C)c3)oc2-c2ccc(OC(F)(F)F)cc2)cn1	> 10	> 10	0.014
Cc1ccc(-c2csc(COc3ccc(OCC(=O)O)c(C)c3)n2)cc1	> 10	> 10	> 10
COc1ccc(-c2nc(COc3ccc(CCC(=O)O)c(C)c3)sc2-c2ccc(C(F)(F)F)cc2)cc1	> 10	> 10	0.14
COc1ccc(-c2nc(Sc3ccc(CC(=O)O)cc3Cl)sc2-c2ccc(OC)cc2)cc1		> 10	
COc1ccc(-c2nc(SCCCOc3ccc(CC(=O)O)cc3Cl)sc2-c2ccc(OC)cc2)cc1		4.61	
COc1ccc(-c2nc(SCCOc3ccc(CC(=O)O)cc3Cl)sc2-c2ccc(OC)cc2)cc1		5.87	
CCCc1c(OCCCSc2ccc(CC(=O)O)cc2Cl)ccc2c(CC)noc12 [L-165461]	1.3		
Cc1cc(OCc2cc(-c3ccc(C(F)(F)F)cc3)cc(-c3ccc(C(F)(F)F)cc3)c2)ccc1OCC(=O)O	> 10	> 10	
COc1ccc(-c2nc(SCc3ccc(CC(=O)O)cc3Cl)sc2-c2ccc(OC)cc2)cc1		> 10	
COc1ccc(-c2nc(SCCCCOc3ccc(CC(=O)O)cc3Cl)sc2-c2ccc(OC)cc2)cc1		2.56	
